The values that follow come from publication PMC11100015, “Bioluminescence Imaging of Potassium Ion Using a Sensory Luciferin and an Engineered Luciferase” (Journal of the American Chemical Society, 2024).

This test concerns the target T1, BREP (Oplophorus gracilirostris, UniProt Q9GV45, A31E/Q38R/Q45L/D46S/L54V/A60N/K70R/V71I/A81I/F95D/L99Q/M102K/D112N/I117V/P142E/Q151K/Y165I/C191H/N193R).
T1 construct: fusion of mScarlet-I and teLuc (NanoLuc variant) via three-residue linker; recombinant, pBAD/His B, purified; with mScarlet-I red fluorescent protein (engineered RFP, RET acceptor)
In words: bioluminescence emission spectra. The class given is biochemical. Particulars: MOPS pH 7.4; 25 uM potassiorin, 100 nM enzyme.

T1 sequence (Q9GV45 28-196 with the stated changes): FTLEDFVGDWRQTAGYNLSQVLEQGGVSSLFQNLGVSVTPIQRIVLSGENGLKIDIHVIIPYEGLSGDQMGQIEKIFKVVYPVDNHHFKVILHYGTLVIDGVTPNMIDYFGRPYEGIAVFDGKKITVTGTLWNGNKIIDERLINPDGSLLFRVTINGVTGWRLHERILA

`O=c1c(Cc2ccc(OCCn3cc(-c4ccc(N5CCOCCOCCOCCOCCOCC5)cc4)nn3)cc2)nc2c(-c3ccccc3)[nH]c(-c3ccccc3)cn1-2` [compound 13, potassiorin]: the bioluminescence emission spectra entry was “We measured the emission spectra of BREP and potassiorin in the absence and presence”.
